Measurements: patent US20250122223A1, “HETEROCYCLIC COMPOUNDS AS UBIQUITIN SPECIFIC PROTEASE 7 INHIBITORS” (ALMAC DISCOVERY LIMITED, priority 2022, published 2025)
pIC50: −log10 of the molar value. Where two headings read alike, the source gives them in different places.

Molecular target: USP7 (Homo sapiens (Human), UniProt Q93009)
Experiment: USP7 fluorescence polarisation (FP) assay with ubiquitin-Lys-TAMRA substrate
Assay type: biochemical
Details: biochemical inhibition; for pIC50: read-out: USP7 IC50 activity (Table 3a, classes); for IC50: unit not given in Table 3b (Table 1 and key of Table 3a use μM), read-out: USP7 IC50 activity (Table 3b)
Protocol: USP7 activity was monitored in a fluorescence polarisation (FP) homogeneous assay using the isopeptide ubiquitin-Lys-TAMRA substrate (U-558, Boston Biochem). Full-length USP7 was purchased from Boston Biochem (His6-USP7FL, E-519). Unless otherwise stated, all other reagents were purchased from Sigma-Aldrich. Enzymatic reactions were conducted in black flat-bottom low volume polystyrene 384-well plates (Grenier) and 15 μL total volume. USP7 (2.5 nM, 5 μL) was incubated in assay buffer (50 mM HEPES (pH 7.2), 150 mM NaCl, 5 mM DTT, 0.05% BSA (w/v), 0.05% CHAPS) in the presence or absence of inhibitor (5 μL). Inhibitors were stored as 10 mM DMSO stocks in an inert environment (low humidity, dark, low oxygen, room temperature) using a Storage Pod System and serial dilutions were prepared in buffer just prior to the assay (from 200 to 0.003 μM, 11 dp curve). Following incubation at room temperature for 30 min, the enzymatic reactions were initiated by dispensing the Ub substrate (50 nM, 5 μL). FP was measured every 5 min over a period of 1.5 h (within the linear range of the assay) using a Pherastar FSX (BMG Labtech) exciting at 530 nm and measuring the amount of parallel and perpendicular light at 575 nm. The FP signal was subsequently normalised to the control without compound present. Data were plotted and fitted, and the concentrations resulting in 50% inhibition (IC50) were calculated using the non-linear regression curve fitting model using GraphPad Prism.

Sequence of USP7 (Q93009 whole entry): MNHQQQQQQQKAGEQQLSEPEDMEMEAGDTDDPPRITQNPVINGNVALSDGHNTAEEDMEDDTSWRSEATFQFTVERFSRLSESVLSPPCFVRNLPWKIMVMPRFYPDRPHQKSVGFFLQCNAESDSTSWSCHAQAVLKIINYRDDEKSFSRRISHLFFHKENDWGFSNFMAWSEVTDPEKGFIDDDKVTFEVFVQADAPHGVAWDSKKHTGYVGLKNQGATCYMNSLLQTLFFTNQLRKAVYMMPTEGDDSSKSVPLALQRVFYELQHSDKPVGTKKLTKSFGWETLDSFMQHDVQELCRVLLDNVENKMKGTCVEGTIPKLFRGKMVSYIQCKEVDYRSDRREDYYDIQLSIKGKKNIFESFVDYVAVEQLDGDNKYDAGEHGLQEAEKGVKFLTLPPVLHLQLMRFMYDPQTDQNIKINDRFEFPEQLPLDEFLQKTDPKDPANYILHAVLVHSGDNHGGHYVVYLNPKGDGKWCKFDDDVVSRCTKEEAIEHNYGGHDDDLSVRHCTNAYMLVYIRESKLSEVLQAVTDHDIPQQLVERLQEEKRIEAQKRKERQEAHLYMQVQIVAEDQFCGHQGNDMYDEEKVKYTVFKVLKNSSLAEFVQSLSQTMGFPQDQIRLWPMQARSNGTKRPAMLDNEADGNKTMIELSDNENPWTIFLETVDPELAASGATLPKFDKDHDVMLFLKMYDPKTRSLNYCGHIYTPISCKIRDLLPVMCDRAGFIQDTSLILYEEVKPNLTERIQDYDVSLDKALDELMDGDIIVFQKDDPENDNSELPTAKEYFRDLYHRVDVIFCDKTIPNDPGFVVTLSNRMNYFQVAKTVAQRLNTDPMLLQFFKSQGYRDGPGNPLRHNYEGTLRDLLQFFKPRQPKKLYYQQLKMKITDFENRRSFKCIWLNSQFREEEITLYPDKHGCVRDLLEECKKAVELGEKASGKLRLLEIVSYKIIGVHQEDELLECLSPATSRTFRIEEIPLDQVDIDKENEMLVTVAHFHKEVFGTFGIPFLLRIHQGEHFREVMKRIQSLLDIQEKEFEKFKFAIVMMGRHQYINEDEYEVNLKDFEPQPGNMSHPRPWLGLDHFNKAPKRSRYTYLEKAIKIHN

Row | Compound | pIC50 | IC50
1 | CC1(C(=O)N2CCC(O)(Cn3cnc4c(cc(Cl)n4-c4ccc([C@@H]5COCCN5)cc4)c3=O)CC2)CC1 (single isomer, unassigned) [Example 71] | > 7.00 | 0.094 µM
2 | Cc1cc(-n2c(Cl)cc3c(=O)n(CC4(O)CCN(C(=O)C5(C)CC5)CC4)cnc32)ccc1[C@H]1COCCN1 (single isomer, unassigned) [Example 73] | > 7.00 | 0.018 µM
3 | Cc1cc(-n2c(Cl)cc3c(=O)n(CC4(O)CCN(C(=O)C5(C)CC5)CC4)cnc32)ccc1[C@@H]1COCCN1 (single isomer, unassigned) [Example 74] | 6.60 to 7.00 | 0.112 µM
4 | O=C(c1ccc(Cl)cc1)N1CCC(O)(Cn2cnc3c(cc(Cl)n3-c3ccc([C@H]4COCCN4)cc3)c2=O)CC1 (single isomer, unassigned) [Example 76] | > 7.00 | 0.038 µM
5 | O=C(c1ccc(Cl)cc1)N1CCC(O)(Cn2cnc3c(cc(Cl)n3-c3ccc([C@@H]4COCCN4)cc3)c2=O)CC1 (single isomer, unassigned) [Example 77] | > 7.00 | 0.052 µM
6 | O=C(C[C@H](c1ccccc1)C(F)(F)F)N1CCC(O)(Cn2cnc3c(cc(Cl)n3-c3ccc([C@@H]4COCCN4)cc3)c2=O)CC1 (single isomer, unassigned) [Example 81] | > 7.00 | 0.015 µM
7 | CC1(C)CN[C@H](c2ccc(-n3c(Cl)cc4c(=O)n(CC5(O)CCN(C(=O)C6(C)CC6)CC5)cnc43)cc2)CO1 (single isomer, unassigned) [Example 98, (R)-6-Chloro-7-(4-(6,6-dimethylmorpholin-3-yl)phenyl)-3-((4-hydroxy-1-(1-methylcyclopropane-1-carbonyl)piperidin-4-yl)methyl)-3,7-dihydro-4H-pyrrolo[2,3-d]pyrimidin-4-one or (S)-6-chloro-7-(4-(6,6-dimethylmorpholin-3-yl)phenyl)-3-((4-hydroxy-1-(1-methylcyclopropane-1-carbonyl)piperidin-4-yl)methyl)-3,7-dihydro-4H-pyrrolo[2,3-d]pyrimidin-4-one] | > 7.00 | 0.045 µM
8 | Cc1cc(-n2c(Cl)cc3c(=O)n(CC4(O)CCN(C(=O)c5ccc(Cl)cc5)CC4)cnc32)ccc1[C@@H]1CO[C@@H](C)CN1 [Example 5, 6-Chloro-3-((1-(4-chlorobenzoyl)-4-hydroxypiperidin-4-yl)methyl)-7-(3-methyl-4-((3R,6S)-6-methylmorpholin-3-yl)phenyl)-3,7-dihydro-4H-pyrrolo[2,3-d]pyrimidin-4-one] | 6.60 to 7.00 | 0.225 µM
9 | C[C@@H]1OCCN[C@H]1c1ccc(-n2c(Cl)cc3c(=O)n(CC4(O)CCN(C(=O)c5ccc(Cl)cc5)CC4)cnc32)cc1 [Example 6, 6-Chloro-3-((1-(4-chlorobenzoyl)-4-hydroxypiperidin-4-yl)methyl)-7-(4-((2S,3S)-2-methylmorpholin-3-yl)phenyl)-3,7-dihydro-4H-pyrrolo[2,3-d]pyrimidin-4-one] | > 7.00 | 0.05 µM
10 | C[C@H]1CN[C@H](c2ccc(-n3c(Cl)cc4c(=O)n(CC5(O)CCN(C(=O)C[C@H](c6ccccc6)C(F)(F)F)CC5)cnc43)cc2)CO1 [Example 7, 6-Chloro-3-((4-hydroxy-1-((R)-4,4,4-trifluoro-3-phenylbutanoyl)piperidin-4-yl)methyl)-7-(4-((3R,6S)-6-methylmorpholin-3-yl)phenyl)-3,7-dihydro-4H-pyrrolo[2,3-d]pyrimidin-4-one] | > 7.00 | 0.016 µM
11 | Cc1cc(-n2c(Cl)cc3c(=O)n(CC4(O)CCN(C(=O)c5ccc(Cl)cc5)CC4)cnc32)ccc1[C@H]1CO[C@H](C)CN1 [Example 12, 6-Chloro-3-((1-(4-chlorobenzoyl)-4-hydroxypiperidin-4-yl)methyl)-7-(3-methyl-4-((3S,6R)-6-methylmorpholin-3-yl)phenyl)-3,7-dihydro-4H-pyrrolo[2,3-d]pyrimidin-4-one] | 6.60 to 7.00 | 0.13 µM

The remaining lines, values ahead:

Row | pIC50 | IC50 | Compound
12 | > 7.00 | 0.016 µM | O=C(C[C@H](c1ccccc1)C(F)(F)F)N1CCC(O)(Cn2cnc3c(cc(Cl)n3-c3ccc([C@H]4COCCN4)cc3)c2=O)CC1 (single isomer, unassigned) [Example 78]
13 | > 7.00 | 0.039 µM | O=C(N1CCC(O)(Cn2cnc3c(cc(Cl)n3-c3ccc([C@H]4COCCN4)cc3)c2=O)CC1)C1(C2CC2)CC1 (single isomer, unassigned) [Example 79]
14 | > 7.00 | 0.041 µM | O=C(N1CCC(O)(Cn2cnc3c(cc(Cl)n3-c3ccc([C@@H]4COCCN4)cc3)c2=O)CC1)C1(C2CC2)CC1 (single isomer, unassigned) [Example 80]
15 | > 7.00 | 0.006 µM | O=C(C[C@H](c1ccccc1)C(F)F)N1CCC(O)(Cn2cnc3c(cc(Cl)n3-c3ccc([C@@H]4COCCN4)cc3)c2=O)CC1 (single isomer, unassigned) [Example 85]
16 | > 7.00 | 0.079 µM | C[C@@]1(C(=O)N2CCC(O)(Cn3cnc4c(cc(Cl)n4-c4ccc([C@H]5COCCN5)cc4)c3=O)CC2)C[C@H]1C(F)(F)F (single isomer, unassigned) [Example 110, 6-Chloro-3-((4-hydroxy-1-((1R,2R)-1-methyl-2-(trifluoromethyl)cyclopropane-1-carbonyl)piperidin-4-yl)methyl)-7-(4-((S)-morpholin-3-yl)phenyl)-3,7-dihydro-4H-pyrrolo[2,3-d]pyrimidin-4-one or 6-chloro-3-((4-hydroxy-1-((1R,2R)-1-methyl-2-(trifluoromethyl)cyclopropane-1-carbonyl)piperidin-4-yl)methyl)-7-(4-((R)-morpholin-3-yl)phenyl)-3,7-dihydro-4H-pyrrolo[2,3-d]pyrimidin-4-one]
17 | 6.60 to 7.00 | 0.132 µM | CC1(C(=O)N2CCC(O)(Cn3cnc4c(cc(Cl)n4-c4ccc(C5(C)COCCN5)cc4)c3=O)CC2)CC1 (stereo not shown) [Example 3, 6-Chloro-3-((4-hydroxy-1-(1-methylcyclopropane-1-carbonyl)piperidin-4-yl)methyl)-7-(4-(3-methylmorpholin-3-yl)phenyl)-3,7-dihydro-4H-pyrrolo[2,3-d]pyrimidin-4-one]
18 | 6.60 to 7.00 | 0.222 µM | C[C@H]1CN[C@H](c2ccc(-n3c(Cl)cc4c(=O)n(CC5(O)CCN(C(=O)c6ccc(Cl)cc6)CC5)cnc43)cc2)CO1 [Example 4, 6-Chloro-3-((1-(4-chlorobenzoyl)-4-hydroxypiperidin-4-yl)methyl)-7-(4-((3R,6S)-6-methylmorpholin-3-yl)phenyl)-3,7-dihydro-4H-pyrrolo[2,3-d]pyrimidin-4-one]
19 | > 7.00 | 0.08 µM | C[C@@H]1CN[C@@H](c2ccc(-n3c(Cl)cc4c(=O)n(CC5(O)CCN(C(=O)c6ccc(Cl)cc6)CC5)cnc43)cc2)CO1 [Example 11, 6-Chloro-3-((1-(4-chlorobenzoyl)-4-hydroxypiperidin-4-yl)methyl)-7-(4-((3S,6R)-6-methylmorpholin-3-yl)phenyl)-3,7-dihydro-4H-pyrrolo[2,3-d]pyrimidin-4-one]
20 | > 7.00 | 0.028 µM | C[C@@H]1CN[C@@H](c2ccc(-n3c(Cl)cc4c(=O)n(CC5(O)CCN(C(=O)C[C@H](c6ccccc6)C(F)(F)F)CC5)cnc43)cc2)CO1 [Example 13, 6-Chloro-3-((4-hydroxy-1-((R)-4,4,4-trifluoro-3-phenylbutanoyl)piperidin-4-yl)methyl)-7-(4-((3S,6R)-6-methylmorpholin-3-yl)phenyl)-3,7-dihydro-4H-pyrrolo[2,3-d]pyrimidin-4-one]
